The supplement of paper PMC5752671
Where a name gives a salt, the structure may show the parent alone.

Tests used:
Assay in all cases: IC50 (cell viability) (log10 M)
Conditions in all cases: 4 days
KASUMI1 = system: KASUMI1
Method in brief: (§1)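 Fourteen leukemia cell lines were plated on extracellular-matrix-coated 384-well plates. Drugs were added robotically the next day at eight concentrations spanning 4–5 logs within 10^–12–10^–4 M, tailored per drug, in duplicate. Viability was read with CellTiter-Glo after 4 days. IC50 is the concentration where a fitted four-parameter curve crosses 50% viability, in log10 M; where that is not reached, the highest tested concentration is entered.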

KG1 = system: KG1
Method in brief: as §1

MOLM/13 = system: MOLM/13
Method in brief: as §1

MOLM/16 = system: MOLM/16
Method in brief: as §1

NB4 = system: NB4
Method in brief: as §1

OCI-AML2 = system: OCI-AML2
Method in brief: as §1

OCI-AML3 = system: OCI-AML3
Method in brief: as §1

PL-21 = system: PL-21
Method in brief: as §1

SKM1 = system: SKM1
Method in brief: as §1

THP-1 = system: THP-1
Method in brief: as §1

| SMILES | IC50 (log10 M) (KASUMI1) | IC50 (log10 M) (KG1) | IC50 (log10 M) (MOLM/13) | IC50 (log10 M) (MOLM/16) | IC50 (log10 M) (NB4) | IC50 (log10 M) (OCI-AML2) | IC50 (log10 M) (OCI-AML3) | IC50 (log10 M) (PL-21) | IC50 (log10 M) (SKM1) | IC50 (log10 M) (THP-1) |
| --- | --- | --- | --- | --- | --- | --- | --- | --- | --- | --- |
| O=C(NC1CCNCC1)c1n[nH]cc1NC(=O)c1c(Cl)cccc1Cl [AT-7519] | -6.54 | -6.08 | -6.96 | -6.37 | -6.93 | -6.9 | -6.93 | -6.96 | -6.99 | -6.61 |
| CC(C)C[C@@H](C(=O)N[C@H](C(=O)OC1CCCC1)c1ccccc1)[C@H](O)C(=O)NO [Tosedostat] | > -5 | -5.48 | -5.17 | -6.4 | -6 | > -5 | > -5 | -5.35 | > -5 | -5.02 |
| CCCS(=O)(=O)Nc1ccc(F)c(C(=O)c2c[nH]c3ncc(-c4ccc(Cl)cc4)cc23)c1F [PLX-4032] | -5.02 | > -5 | > -5 | > -5 | > -5 | -5.27 | > -5 | > -5 | > -5 | > -5 |
| COc1ccc2c3n(c(=NC(=O)c4cccnc4)nc2c1OC)CCN3 [PIK-90] | -5.88 | > -5 | > -5 | > -5 | > -5 | > -5 | > -5 | > -5 | > -5 | > -5 |
| CC1=C(/C=C/C(C)=C/C=C/C(C)=C/C(=O)O)C(C)(C)CCC1 [Tretinoin] | -5.14 | > -5 | -6.43 | > -5 | > -5 | -6.18 | -7.6 | > -5 | -5.91 | > -5 |
| Nc1nc2[nH]cnc2c(=S)[nH]1 [Thioguanine] | -5.09 | -5.12 | -5.97 | -5.43 | -5.8 | -5.95 | -6.03 | -5.37 | -5.34 | -6.09 |
| Cc1cnc(Nc2ccc(OCCN3CCCC3)cc2)nc1Nc1cccc(S(=O)(=O)NC(C)(C)C)c1 | -6.25 | -6.17 | -6.89 | -6.74 | -5.79 | -6.08 | -5.86 | -5.92 | -5.97 | -5.84 |
| CC[C@H](C)C(=O)O[C@H]1C[C@H](O)C=C2C=C[C@H](C)[C@H](CC[C@@H](O)C[C@@H](O)CC(=O)O)[C@H]21 [Pravastatin] | > -5 | > -5 | > -5 | > -5 | > -5 | > -5 | > -5 | > -5 | > -5 | > -5 |
| COc1cc(Nc2c(C#N)cnc3cc(OCCCN4CCN(C)CC4)c(OC)cc23)c(Cl)cc1Cl [SKI-606] | -5.37 | -5.99 | -5.82 | -6.82 | -5.64 | -5.56 | -5.47 | -5.75 | -5.63 | -5.23 |
| CN1CCN(c2ccc3nc(-c4c(N)c5c(F)cccc5[nH]c4=O)[nH]c3c2)CC1 [TKI258] | -6.25 | -6.78 | -7.91 | -6.6 | > -6 | -6.42 | > -6 | > -6 | -6.04 | > -6 |
| CN(C)C/C=C/C(=O)Nc1cc2c(Nc3ccc(F)c(Cl)c3)ncnc2cc1O[C@H]1CCOC1 [BIBW 2992] | -5.76 | -5.46 | -5.43 | -6.56 | -5.55 | -5.49 | -5.58 | -5.66 | -5.76 | -5.4 |
| COc1ccc(-c2ccc3c(N4CCOC[C@@H]4C)nc(N4CCOC[C@@H]4C)nc3n2)cc1CO [AZD-8055] | -6.78 | -7.85 | -7.57 | -7.98 | -6.86 | -7.24 | -7.34 | -7.46 | -7.16 | -5.23 |
| FC(F)c1nc2ccccc2n1-c1nc(N2CCOCC2)nc(N2CCOCC2)n1 [ZSTK-474] | -6.2 | > -5 | > -5 | -5.92 | > -5 | > -5 | -5.21 | -5.57 | > -5 | > -5 |
| CNC(=O)c1cc(Oc2ccc(NC(=O)Nc3ccc(Cl)c(C(F)(F)F)c3)cc2)ccn1 [Sorafenib] | > -6 | > -6 | -7.81 | -6 | > -6 | > -6 | > -6 | > -6 | > -6 | > -6 |
| Cc1ccc(S(=O)(=O)/C=C/C#N)cc1 [BAY 11-7082] | -6.25 | -6.21 | -6 | -6.09 | -5.97 | -5.94 | -6.35 | -6.03 | -6.22 | -5.91 |
| COc1cc2c(N3CCN(C(=O)Nc4ccc(OC(C)C)cc4)CC3)ncnc2cc1OCCCN1CCCCC1 [Tandutinib] | > -5 | > -5 | -6.98 | > -5 | > -5 | > -5 | > -5 | > -5 | > -5 | > -5 |
| Cn1cncc1[C@@](N)(c1ccc(Cl)cc1)c1ccc2c(c1)c(-c1cccc(Cl)c1)cc(=O)n2C [Tipifarnib] | -6.28 | -6.6 | -5.86 | < -8.34 | < -8.34 | -6.74 | -6.36 | -5.9 | -5.92 | -8.34 |
| CC[C@]1(O)C[C@H]2CN(CCc3c([nH]c4ccccc34)[C@@](C(=O)OC)(c3cc4c(cc3OC)N(C=O)[C@H]3[C@@](O)(C(=O)OC)[C@H](OC(C)=O)[C@]5(CC)C=CCN6CC[C@]43[C@@H]65)C2)C1 [Vincristine sulfate] | < -8.48 | < -8.48 | < -8.48 | < -8.48 | < -8.48 | < -8.48 | < -8.48 | < -8.48 | < -8.48 | < -8.48 |
| CC[C@]1(O)C[C@@H]2CN(CCc3c([nH]c4ccccc34)[C@@](C(=O)OC)(c3cc4c(cc3OC)N(C)[C@H]3[C@@](O)(C(=O)OC)[C@H](OC(C)=O)[C@]5(CC)C=CCN6CC[C@]43[C@@H]65)C2)C1 [Vinblastine sulfate] | < -8.48 | < -8.48 | < -8.48 | < -8.48 | < -8.48 | < -8.48 | < -8.48 | < -8.48 | < -8.48 | < -8.48 |

| SMILES | IC50 (log10 M) (KASUMI1) | IC50 (log10 M) (KG1) | IC50 (log10 M) (MOLM/13) | IC50 (log10 M) (MOLM/16) | IC50 (log10 M) (NB4) | IC50 (log10 M) (OCI-AML2) | IC50 (log10 M) (OCI-AML3) | IC50 (log10 M) (PL-21) | IC50 (log10 M) (SKM1) | IC50 (log10 M) (THP-1) |
| --- | --- | --- | --- | --- | --- | --- | --- | --- | --- | --- |
| CCN(CC)CCNC(=O)c1c(C)[nH]c(/C=C2\C(=O)Nc3ccc(F)cc32)c1C [Sunitinib] | > -6 | > -6 | -7.8 | -6.45 | > -6 | > -6 | > -6 | > -6 | > -6 | > -6 |
| CC(C)(C)c1cnc(CSc2cnc(NC(=O)C3CCNCC3)s2)o1 [SNS-032] | -6.66 | > -6 | -7.06 | -6.51 | -6.56 | -7.04 | -6.7 | -7.17 | -6.94 | -6.79 |
| OCCn1cc(-c2cnc3nnn(Cc4ccc5ncccc5c4)c3n2)cn1 | > -5 | > -5 | > -5 | > -5 | > -5 | > -5 | > -5 | > -5 | > -5 | > -5 |
| NC(=O)c1ccc(-c2nc(-c3ccccn3)c(-c3ccc4c(c3)OCO4)[nH]2)cc1 | > -5 | > -5 | > -5 | > -5 | > -5 | > -5 | > -5 | > -5 | > -5 | > -5 |
| CO[C@H]1C[C@@H]2CC[C@@H](C)[C@@](O)(O2)C(=O)C(=O)N2CCCC[C@H]2C(=O)O[C@H]([C@H](C)C[C@@H]2CC[C@@H](OC(=O)C(C)(CO)CO)[C@H](OC)C2)CC(=O)[C@H](C)/C=C(\C)[C@@H](O)[C@@H](OC)C(=O)[C@H](C)C[C@H](C)/C=C/C=C/C=C/1C [Temsirolimus] | -5.22 | > -5 | -5.4 | -6.13 | > -5 | -5.46 | > -5 | -5.28 | -5.46 | > -5 |
| COc1cc(F)c(F)c(Nc2ccc(I)cc2F)c1NS(=O)(=O)C1(C[C@H](O)CO)CC1 [RDEA-119] | -6.56 | -6.22 | -5.65 | -5.91 | -6.54 | -8.07 | -7.81 | -6.99 | -7.58 | -5.46 |
| Clc1ccc(Nc2nnc(Cc3ccncc3)c3ccccc23)cc1 [Vatalanib] | -5.26 | > -5 | > -5 | > -5 | > -5 | > -5 | > -5 | > -5 | > -5 | > -5 |
| O=C1NC(=O)/C(=C\c2ccc3nccnc3c2)S1 | > -5 | > -5 | > -5 | > -5 | > -5 | > -5 | > -5 | > -5 | > -5 | > -5 |
| Cl[TeH]1(Cl)(Cl)OCCO1.N [AS101] | > -5 | > -5 | -5.07 | > -5 | -5.28 | > -5 | > -5 | > -5 | > -5 | -5.02 |
| COCC[n+]1c2c(n(Cc3cnccn3)c1C)C(=O)c1ccccc1C2=O [YM-155] | < -8.34 | -7.71 | < -8.34 | -8.13 | < -8.34 | < -8.34 | < -8.34 | -7.78 | < -8.34 | -8.33 |
| CC1(C)CCC(c2ccc(Cl)cc2)=C(CN2CCN(c3ccc(C(=O)NS(=O)(=O)c4ccc(N[C@H](CCN5CCOCC5)CSc5ccccc5)c(S(=O)(=O)C(F)(F)F)c4)cc3)CC2)C1 [ABT-263] | -6.42 | -6.31 | -6.38 | -6.12 | > -5.96 | -6.42 | > -5.96 | > -5.96 | > -5.96 | > -5.96 |
| O=C1NC(=O)c2c1c1c3ccccc3n3c1c1c2c2ccccc2n1[C@H]1CC[C@@H]3O1 | > -6 | > -6 | > -6 | -6.46 | > -6 | > -6 | > -6 | > -6 | > -6 | > -6 |
| CC/C(=C(\c1ccccc1)c1ccc(OCCN(C)C)cc1)c1ccccc1 [Tamoxifen] | -5.23 | -5.16 | > -5 | -5.43 | > -5 | -5.33 | -5.17 | -5.01 | -5.01 | -5.04 |
| Cn1nnc2c(C(N)=O)ncn2c1=O [Temozolomide] | > -5 | > -5 | > -5 | > -5 | > -5 | > -5 | > -5 | > -5 | > -5 | > -5 |
| C=C(c1ccc(C(=O)O)cc1)c1cc2c(cc1C)C(C)(C)CCC2(C)C [Bexarotene] | > -5 | > -5 | > -5 | > -5 | > -5 | > -5 | > -5 | > -5 | > -5 | > -5 |
| Cn1cnc2c(F)c(Nc3ccc(Br)cc3Cl)c(C(=O)NOCCO)cc21 [AZD-6244] | > -5 | -5.45 | > -5 | > -5 | -6.9 | -7.65 | -7.46 | -6.69 | -7.45 | > -5 |
| O=C(/C=C/c1cccc(S(=O)(=O)Nc2ccccc2)c1)NO [Belinostat] | -7.21 | -7.32 | -7.04 | -7.83 | -7.2 | -7.69 | -7 | -6.9 | -7.16 | -6.83 |
| CNC(=O)c1ccccc1Sc1ccc2c(/C=C/c3ccccn3)n[nH]c2c1 [Axitinib] | -6.09 | -6.58 | -5.77 | -5.77 | -5.46 | -5.53 | -5.51 | -5.85 | -5.34 | -5.22 |
| CO[C@H]1C[C@@H]2CC[C@@H](C)[C@@](O)(O2)C(=O)C(=O)N2CCCC[C@H]2C(=O)O[C@H]([C@H](C)C[C@@H]2CC[C@@H](O)[C@H](OC)C2)CC(=O)[C@H](C)/C=C(\C)[C@@H](O)[C@@H](OC)C(=O)[C@H](C)C[C@H](C)/C=C/C=C/C=C/1C [Rapamycin] | -5.1 | > -5 | > -5 | -6.06 | > -5 | > -5 | > -5 | > -5 | -5.79 | > -5 |
